“Also recorded” adds a separate entry of the source.
Experiments:
wheat [1] = experiment: Wheat growth on nitrogen free media with nitrogen fixing bacterium; type: in vivo; conditions: AB09 in combination with a nitrogen fixing bacterium, vs control lacking treatment
Protocol: The ability of the AB09 molecule to control useful soil bacteria metabolism has implications for building integrated technology systems and groundbreaking products. In the lab, AB09 was administered in combination with a nitrogen fixing bacterium to nitrogen free media.

[2] = tested on: soil consortia cultures with corn plant; experiment: Phosphate solubilization with corn (foliar spray or soil applied) in soil consortia cultures; type: in vivo, B73 Corn
Text: In order to test the ability of AB09 to stimulate a phosphate solubilization phenotype when applied on plants versus directly into soil, a 3 week old corn plant was introduced into the soil consortia cultures. Approximately two weeks prior to the experiment, corn plants were removed from soil and roots were cleaned of potting soil. […] Corn leaves were sprayed with AB09 (roots protected with foil during spray application) and roots were placed in flasks of NBRIP liquid media and soil inoculant (FIG. 4B). The flasks were placed on a low speed orbital shaker under fluorescent lights and the media supernatant was tested for phosphate concentration after 24 h.
FIG. 4A illustrates that B73 Corn plants were grown until V3 growth stage, removed from soil, rinsed, and placed in tap water for 1.5 weeks to induce nutrient stress FIG. 4B illustrates that plants received either foliar (3 mL/plant using a fingertip sprayer) or soil applied treatments and were placed in 250 mL baffled flasks containing 50 mL NBRIP growth medium ([53 mM] Ca3(PO4)2) and 500 mg of 2 mm particle-sized soil. Flasks with treated corn and sterilized foam caps with were placed on orbital shakers at 100 RPM for 1 day at room temperature under fluorescent lights. FIG. 4C illustrates that orthophosphate was measured using the malachite-green phosphate method. […]

wheat [3] = experiment: Wheat plant growth assay (seed treatment); type: in vivo; conditions: seed treatment 1 ug/seed, four days after emergence, vs mock treated
Protocol: To determine the effect of AB09 on plants, AB09 was seed treated at a rate of 1 ug/seed onto wheat seeds. Plants were analyzed four days after emergence. […] AB09 was applied to wheat seeds, which were planted in sand and shoots were measured for height at four days post-emergence. Control seeds received a mock treatment. The WinRhizo Pro root scanner and software were used to obtain root length and surface area. AB09 at a rate of lug/seed in acetone was treated onto seeds and the acetone was allowed to fully evaporate. Control seeds were mock treated with acetone. Seeds were planted in wet sand in 50 mL tubes sand, placed under fluorescent lights, and watered with tap water. Seedlings were measured four days post-emergence for shoot height. The WinRhizo Pro root scanner and software were used to obtain root length and surface area.

tomato = experiment: Field trials in tomato; type: in vivo
Text: Field trials show both increasing yield and larger, higher quality fruits. Tomato yields were increased by up to 40% in California field trials.

[4] = tested on: phosphate solubilizing bacteria (PSB); experiment: Halo assay of phosphate solubilizing bacteria on agar plates containing insoluble phosphate; type: cell-based; conditions: AB09 treated PSB vs control treated PSB
Text: Larger halos indicate higher microbial solubilization activity.

soil consortia cultures [5] = experiment: Acetylene reduction method in soil consortia nitrogen free cultures; type: cell-based; conditions: 25 ug/mL, Burks-N, 72 h, control nd
Protocol: One flask culture per soil received an AB09 treatment and the other received a control treatment of water. After 72 h of growth, 5 mL of each culture were analyzed for nitrogenase activity using the acetylene reduction method. […] Soil from agricultural areas was air dried and sieved with a 2 mm sieve. Five hundred milligrams of dried, sieved soil was added to 50 mL of Burks-N media in a 250 mL baffled flask. AB09 was added to 25 ug/mL and water was added in equivalent amounts for controls. Flasks were topped with a foam plug and incubated at 30 C, shaking at 100 rpm. After 72 h, 5 mL of the soil culture was transferred to 20 mL autosampler vials and analyzed for ethylene gas with the acetylene reduction technique and GC/MS as described as above.

soil consortia cultures [6] = experiment: 16S microbiome analysis of soil cultures grown in nitrogen free media; type: cell-based; conditions: Alpha soil culture, 25 ug/mL, 72 h, vs control
Protocol: 16S microbiome analysis was performed on soil-inoculated cultures grown in nitrogen free media in order to compare the effects of AB09 treatment vs control. […] The increased abundance of these diazotrophs in response to AB09 is consistent with the increased nitrogenase activity observed in Table 1 for Alpha soil. […] Known nitrogen fixing bacteria are indicated with an asterisk (*). Soil inoculated cultures (from Alpha Ag soil culture from Table 1) experience an increase in the relative abundance of diazotrophs when treated with AB09. Soil from agricultural areas was air dried and sieved with a 2 mm sieve. Five hundred milligrams of dried, sieved soil was added to 50 mL of nitrogen free media (Burks-N) in a 250 mL baffled flask. AB09 was added to 25 ug/mL and water was added in equivalent amounts for controls. Flasks were topped with a foam plug and incubated at 30 C, shaking at 100 rpm. DNA was extracted from 250 ul of the soil culture after 72 h of growth using the Qiagen PowerSoil Pro Kit (Cat No. 47014). DNA was checked on a gel and Qubit for quality and concentration, respectively. Ten nanograms of DNA was used in the 16S barcoding kit (SQK-RAB204) with the MinION sequencer. Fastq files from MinKnow were uploaded to Epi2Me and the 16S Oxford Nanopore Technologies kit (SQK-RAB204) was selected. […] Read counts were normalized to the total number of reads with an identified barcode.

Bradyrhizobium japonicum = experiment: RNASeq gene expression in Bradyrhizobium japonicum; type: cell-based
Protocol: Expression levels for all genes in a nitrogen fixing bacteria (Bradyrhizobium japonicum) were measured in the presence or absence of AB09 using Illumina RNASeq technology.

CC1=CC(Oc2c(C)occc2=O)OC1=O (centres unmarked) [AB09, maltol lactone]
wheat growth on nitrogen free media (wheat [1]): substantially greater; also recorded: more robust growth
phosphate solubilization, treatment directly applied to the soil supernatant ([2]; corn roots in NBRIP with soil inoculant, after 24 h): increase
phosphate solubilization, treatment applied to corn leaves as a foliar spray ([2]; two treatment doses (25 or 50 ug/mL, 3 mL/plant), media supernatant after 24 h): increase
root length (wheat [3]): increase
root surface area (wheat [3]): increase
shoot height (wheat [3]): increase
increase of tomato yields (tomato; California field trials): up to 40%
tomato fruit size and number (tomato; treated plants): larger and more numerous fruits
clearance halos around PSB colony [4]: larger clearance
% Ethylene (nitrogenase activity) (soil consortia cultures [5]; Alpha soil): 14.5%
% Ethylene (nitrogenase activity) (soil consortia cultures [5]; Bennet soil): 0.7%
% Ethylene (nitrogenase activity) (soil consortia cultures [5]; U of I soil): 4.2%
abundance of nitrogen fixing bacteria Azotobacter chroococcum and Pseudomonas stutzeri (soil consortia cultures [6]): increased the abundance
gene expression (Illumina RNASeq) in presence vs absence of AB09 (Bradyrhizobium japonicum): induced genetic regulators and pathways for nitrogen fixation and for microaerophilic growth

Reference: patent US12239132B2, “Compounds and methods for increasing soil nutrient availability” (SOUND AGRICULTURE COMPANY, priority 2018, dated 2025)
